Assay results as given in patent US20230039987A1, “GEL COMPOSITIONS, SYSTEMS, AND METHODS” (Boston Scientific Scimed, Inc., priority 2021, published 2023).

Tested on: NIH 3T3 fibroblasts
Details: read-out: IC50 (cytotoxicity); 24 hours, MTS
Experimental: In vitro cytotoxicity of the photoinitiator and the gel were tested using NIH 3T3 fibroblasts cultured in Dulbecco's Modified Eagle's Medium (DMEM) containing 10% fetal bovine serum and 1% penicillin-streptomycin. Cells were seeded in either 96 well plates or 12 well plates at a density of 2,500 cells/well or 25,000 cells/well, respectively, and allowed to adhere overnight. Photoinitiator solutions and the gel solution were sterile filtered using a 0.22 um filter prior to testing in vitro. The gel solution was then gelled within the biosafety cabinet using the 150 W halogen lamp and co-cultured with the cells utilizing a 3 μm pore size transwell insert. Cells were incubated with treatments for 24 hours and then viability was measured using an MTS (3-(4,5-dimethyltriazol-2-yl)-5-(3-carboxymethoxyphenyl)-2-(4-sulfophenyl)-2H-tratrazolium, inner salt) assay (CellTiter 96® AQueous One, Promega). Cell viabilities were normalized to control untreated cells.

Work on O=C(O)c1ccccc1-c1c2cc(Br)c(=O)c(Br)c-2oc2c(Br)c(O)c(Br)cc12 [photoinitiator, Eosin Y] yielded an IC50 of roughly 223 µM.
